We go through one compound from patent publication US5614527A, “Insecticidal tetrahydrofuran-compound” (Mitsui Toatsu Chemicals, Inc., priority 1994, dated 1997).

In data set [1] the test system is resistant strain of Nepphotettix cincticeptus Unler--Resistant green rice leafhopper. Put plainly: Effect on resistant green rice leafhopper (mortality, treated rice seedlings). Format: in vivo. The note with it: Nephotettix cincticeps, 48 h. The protocol:
Effect on resistant strain of Nepphotettix cincticeptus Unler--Resistant green rice leafhopper
(§1) Each compound of the present invention was dissolved in acetone to prepare an acetone solution having a predetermined concentration, and 3 ml of the acetone solution was applied over a bundle of several rice seedlings (about third leaf stage). After drying in air, the treated seedlings were covered with a metal gauze cylinder, and ten female adults of resistant green rice leafhopper were introduced into the cylinder. Afterward, this cylinder was placed in a temperature controlled room at 25° C., and after 48 hours, mortality was checked.

Data set [2] concerns Myzus persicae Sulzer--Green peach aphid. Put plainly: Effect on green peach aphid (mortality, sprayed eggplant seedlings). Format: in vivo. The note with it: Myzus persicae, 48 h. The protocol: (§2) 20 parts of a compound of the present invention, 10 parts of Sorpol 355S (made by Toho Chemical Co., Ltd., a surface active agent), 70 parts of xylene were uniformly stirred and mixed to obtain an emulsion. Here, the parts mean parts by weight, which will apply to the following.
Effect on Myzus persicae Sulzer--Green peach aphid
The emulsion of each compound of the present invention prepared according to Formulation Example 1 was diluted with distilled water to a predetermined concentration, and a spreading agent (New Gramn, made by Sankyo Co., Ltd.) was then added thereto so that its concentration might be 0.02%. Then, the thus prepared chemical solution was sprayed over eggplant seedlings of 2nd and 3rd plastochrons, on which green peach aphids had been parasitic, and the seedlings were the cultivated in a hothouse. After 48 hours, the number of the alive green peach aphid was counted to calculate mortality.

For data set [3], the system named is Laodelphax striatellus Fallen--Smaller brown planthopper. Put plainly: Effect on smaller brown planthopper (mortality, treated rice seedlings). It is filed as in vivo. The note with it: female adults, 25° C., 48 hours. The protocol:
as §1, with “Effect on Laodelphax striatellus Fallen--Smaller brown planthopper Each” for “Each”, “smaller brown planthopper” for “resistant green rice leafhopper”, “C.” for “C.,”

Data set [4] relates to Spodoptera litura Fabricius--Common cutworm. Nature of the data set: Effect on common cutworm (mortality, leaf immersion). The note with it: Spodoptera litura, 72 h, second instar larvae, 25° C. It is filed as in vivo. The procedure: as §2
Effect on Spodoptera litura Fabricius--Common cutworm
The emulsion of each compound of the present invention prepared according to Formulation Example 1 was diluted with distilled water to a predetermined concentration, and a spreading agent New Gramin, made by Sankyo Co., Ltd.) was then added thereto so that its concentration might be 0.02%. Then, 3leaves of Ipomea batatas were fully immersed in the solution. After drying in air, the leaves were placed in a plastic cup having a diameter of 9 cm and a depth of 4 cm, and 10 second instar larvae of common cutworm were allowed to eat the leaves at 25° C. After 72 hours, mortality was checked.

Data set [5] in a line: Acute toxicity to mice (oral). The following applies: mouse, in vivo; oral (stomach tube); male mice 6 weeks old; 14 days observation. The procedure:
5-week-old male mice (Crj: CD-1) were purchased and then tamed for 1 week, and so the mice of 6 weeks old were tested. The mice were bred in a breeding chamber having a temperature of 23°±2° C., a humidity of 50±10%, a ventilation frequency of 15 times/hour and a lighting time of 12 hours/day. A solid feed (CE-2, made by Nippon Clea) was given, and as drinking water, tap water was freely given.
Each compound to be tested was Suspended in acetone:corn oil (1:9) by the use of a high-speed homogenizer, and then orally administered forcedly to the mice to be tested through a stomach tube. The amount of the solution to be administered was 0.1 ml with respect to 10 g of weight (10 ml/kg).
One administration group was constituted of 5 mice, and an observation period was 14 days from the administration.

Some results are limits rather than exact numbers.

A word on the mortality: it is the percentage killed. A high value points to fewer survivors. Usually LD50 stands for the dose expected to kill half of the subjects tested. Low readings indicate a more toxic substance, high ones a less toxic substance. Regarding `O=[N+]([O-])N=C1NCCCN1CC1CCOC1` (centres unmarked) [Compound No. 1, 1-[(tetrahydro-3-furanyl)methyl]-2-(nitroimino)hexahydropyrimidine], in data set [1], the mortality at 200 ppm stood at 100%. The results for the mortality at 1000 ppm in data set [1] and in data set [4] were 100% and 70%, respectively. In addition, the mortality at 10 ppm in data set [2] (10 ppm) was 100%. This compound also showed a mortality at 100 ppm in data set [2] (100 ppm) of 100%. Besides, the “Mortality (%)” value in data set [3] (200 ppm) and in data set [3] (1000 ppm) was 100% each time. The LD50 at 336 h in data set [5] is over 300 mg/kg.
